Results published in US7718651B2, “Inhibitors of FtsZ and uses thereof” (priority 2002, dated 2010).

test system: M. tuberculosis H37Rv; assay: microbe, parasite or virus in culture; type: cell-based; settings: not given

Structure (SMILES)	% Inh [%]
CCOC(=O)Nc1cc2c(c(N)n1)N=C(c1ccccc1)[C@@H](C)N2 [Compound A98]	57
CCOC(=O)Nc1cc(NCc2ccccc2)c(N)c(N)n1 [Compound A154]	12
CCOC(=O)Nc1cc(NCCCCc2ccccc2)c(N)c(N)n1 [Compound A93]	60
CCOC(=O)Nc1cc(N[C@@H](C)C(=O)c2ccc(O)cc2)c([N+](=O)[O-])c(N)n1 [Compound A305]	−2

same assay, conditions: M. tuberculosis H37Rv, screen concentration 12.5 g/ml [sic], Table 8

Structure (SMILES)	% Inh [%]
CCOC(=O)Nc1cc2oc(-c3cc(OC)c(OC)c(OC)c3)nc2c(N(CCc2ccccc2)Cc2ccccc2)n1 [Compound A124]	31
CCOC(=O)Nc1cc(SC(=N)N)c([N+](=O)[O-])c(N)n1 [Compound A84]	66
CCOC(=O)Nc1cc(NC(C)C(=O)Cc2ccccc2)c([N+](=O)[O-])c(N)n1 (stereo not drawn) [Compound A313]	−21
CCOC(=O)Nc1cc(NC(CC)C(O)c2ccccc2)c([N+](=O)[O-])c(N)n1 (stereo not drawn) [Compound A301]	−1
CCOC(=O)Nc1cc(NCC(=O)COc2ccc(C(=O)OCC)cc2)c([N+](=O)[O-])c(N)n1 [Compound A292]	0
CCOC(=O)Nc1cc2c(c(N)n1)N=C(c1ccc(OC)cc1)CS2 [Compound A158]	10
CCOC(=O)Nc1cc2c([nH]c(=S)n2N)c(N)n1 [Compound A200]	0
CCOC(=O)Nc1cc(NC/C(=N/O)c2ccccc2)c([N+](=O)[O-])c(N)n1 [Compound A235]	0
CCOC(=O)Nc1cc2c3c(n1)[nH]c(=S)n3c(=S)n2N [Compound A199]	0
CCOC(=O)Nc1cc(N)c2nc(-c3ccccc3)cnc2n1 [Compound A148]	14
CCOC(=O)Nc1cc2c(nc(SCc3ccccc3)n2/N=C/c2ccccc2)c(N)n1 [Compound A132]	24
CCOC(=O)Nc1cc(NC(c2ccccc2)c2ccccc2)c([N+](=O)[O-])c(NC/C(=N/O)c2ccc(Cl)cc2)n1 [Compound A130]	28
CCOC(=O)Nc1cc2c(nc(SCc3ccc4c(c3)OCO4)n2N)c(N)n1 [Compound A91]	61
CCOC(=O)Nc1cc2c(c(N)n1)N=C(c1cc(OC)c(OC)c(OC)c1)CO2 [Compound A227]	0
CCOC(=O)Nc1cc(NCC(O)CN(C)c2ccccc2)c([N+](=O)[O-])c(N)n1 (stereo not drawn) [Compound A101]	54
CCOC(=O)Nc1cc2nc(C)cnc2c(NC(=O)OCC)n1 [Compound A277]	0
CCOC(=O)Nc1cc2c(ncn2/N=C/c2ccc(OC)cc2)c(N)n1 [Compound A242]	0
CCOC(=O)Nc1cc(NC/C(=N/O)c2cccc(OC)c2)c([N+](=O)[O-])c(N)n1 [Compound A231]	0
CCOC(=O)Nc1cc(NC(C)C(=O)c2ccc(O)cc2)c([N+](=O)[O-])c(N)n1 (stereo not drawn) [Compound A183]	2
CCOC(=O)Nc1cc(N[C@@H](C)[C@@H](O)c2ccc(O)cc2)c([N+](=O)[O-])c(N)n1 [Compound A178]	4
CCOC(=O)Nc1cc(NC(C)C(O)c2ccc(O)cc2)c(N)c(N)n1 (stereo not drawn) [Compound A179]	4
CCOC(=O)Nc1cc2[nH]c(-c3ccc(Oc4ccccc4)cc3)nc2c(N(CCc2ccccc2)Cc2ccccc2)n1 [Compound A15]	98
CCOC(=O)Nc1cc(NCC(=O)c2ccc(F)cc2)c([N+](=O)[O-])c(N)n1 [Compound A211]	0
CCOC(=O)Nc1ccccn1 [Compound A207]	0
CCOC(=O)Nc1cc(NCC(O)CN(C)c2ccc(C)cc2)c([N+](=O)[O-])c(N)n1.Cl (stereo not drawn) [Compound A62]	86

Structure (SMILES)	% Inh [%]
CCOC(=O)Nc1cc2c(c(N)n1)N=C(c1ccc(F)cc1)CN2 [Compound A60]	87
CCOC(=O)Nc1cc(NC(c2ccccc2)c2ccccc2)c([N+](=O)[O-])c(OCC(=O)c2ccc(Br)cc2)n1 [Compound A295]	0
CCCCC1Nc2cc(NC(=O)OCC)nc(N)c2N=C1C (stereo not drawn) [Compound A87]	64
CCOC(=O)Nc1cc(NC(C)/C(=N/O)c2ccc(NC)cc2)c([N+](=O)[O-])c(N)n1 (stereo not drawn) [Compound A144]	16
CCOC(=O)Nc1cc(NCC(=O)CCc2ccccc2)c([N+](=O)[O-])c(N)n1 [Compound A135]	22
CCOC(=O)Nc1cc(N[C@H](C)C(=O)c2ccccc2)c([N+](=O)[O-])c(N)n1 [Compound A198]	0
CCOC(=O)Nc1cc(N)c2ncn(-c3ccccc3)c2n1 [Compound A103]	53
CCOC(=O)Nc1cc(NC(C)C(O)c2ccc3c(c2)OCO3)c([N+](=O)[O-])c(N)n1 (stereo not drawn) [Compound A163]	8
CCOC(=O)Nc1cc(NC/C(=N/O)c2ccc(C)cc2)c([N+](=O)[O-])c(N)n1 [Compound A210]	0
CCOC(=O)Nc1cc(Nc2ccc(Cl)cc2)c2ncc(C)nc2n1 [Compound A260]	0
CCOC(=O)Nc1cc(NC(C)C(=O)c2ccc3c(c2)OCO3)c([N+](=O)[O-])c(N)n1 (stereo not drawn) [Compound A140]	19
CCOC(=O)Nc1cc(NC(c2ccccc2)c2ccccc2)c2nc(-c3ccccc3)c(-c3ccccc3)nc2n1 [Compound A119]	36
CCOC(=O)Nc1cc(NCC(=O)c2ccc(-c3ccccc3)cc2)c([N+](=O)[O-])c(N)n1 [Compound A300]	0
CCOC(=O)Nc1cc2[nH]c(-c3ccccc3F)nc2c(N(CCc2ccccc2)Cc2ccccc2)n1 [Compound A20]	98
CCOC(=O)Nc1nc(NC(=O)OCC)c([N+](=O)[O-])c(NC(C)/C(=N\O)c2ccccc2)c1[N+](=O)[O-] (stereo not drawn) [Compound A150]	14
O=C(Nc1cc(Cl)cc(NC(=O)OCc2ccccc2)n1)OCc1ccccc1 [Compound A188]	1
CCOC(=O)Nc1cc(NCCc2ccc(S(N)(=O)=O)cc2)c([N+](=O)[O-])c(N)n1 [Compound A126]	30
CCOC(=O)Nc1cc(N/N=C/c2ccccc2)c2nc[nH]c2n1 [Compound A48]	92
CCOC(=O)Nc1cc(N)c2nc(-c3ccccc3)c(N)nc2n1 [Compound A141]	19
CCOC(=O)Nc1cc(N)c([N+](=O)[O-])c(Cl)n1 [Compound A76]	72
CCOC(=O)Nc1cc2c(c(N)n1)N=C(c1ccccc1)C(CC)N2 (stereo not drawn) [Compound A306]	−3
CCOC(=O)Nc1cc2c(nc(-c3ccccc3)n2C(c2ccccc2)c2ccccc2)c(Cl)n1 [Compound A89]	63
CCOC(=O)Nc1cc2c(c(NC(c3ccccc3)c3ccccc3)n1)N=C(c1ccccc1)C1NC=CN21 (stereo not drawn) [Compound A311]	−16
CCCCC(Nc1cc(NC(=O)OCC)nc(N)c1[N+](=O)[O-])C(C)=O (stereo not drawn) [Compound A67]	81
CCOC(=O)Nc1cc(NC/C(CCc2ccccc2)=N\O)c([N+](=O)[O-])c(N)n1 [Compound A136]	21

Structure (SMILES)	% Inh [%]
CCOC(=O)Nc1nc(NC(=O)OCC)c([N+](=O)[O-])c(Cl)c1[N+](=O)[O-] [Compound A202]	0
CCOC(=O)Nc1cc2[nH]nnc2c(Cl)n1 [Compound A206]	0
CCCCOC(=O)Nc1cc(NC(c2ccccc2)c2ccccc2)c2nc(-c3cc(OC)c(OC)c(OC)c3)c(-c3cc(OC)c(OC)c(OC)c3)nc2n1 [Compound A267]	0
CCOC(=O)Nc1cc(NCC(=O)c2ccc(C(F)(F)F)cc2)c([N+](=O)[O-])c(N)n1 [Compound A222]	0
CCOC(=O)Nc1cc(Nc2ccc(Cl)cc2)c2nc(-c3ccccc3)c(-c3ccccc3)nc2n1 [Compound A257]	0
CCOC(=O)Nc1cc(NCCCCc2ccccc2)c2nc[nH]c2n1 [Compound A86]	65
CCOC(=O)Nc1cc(Cl)cc(NC(=O)OCC)n1 [Compound A185]	2
CCOC(=O)Nc1cc(Nc2ccc(Cl)cc2)c2nc(-c3ccc(Cl)cc3)c(-c3ccc(Cl)cc3)nc2n1 [Compound A121]	33
CCOC(=O)Nc1cc(N)c([N+](=O)[O-])c(NC(=O)OCC)n1 [Compound A272]	0
CCOC(=O)Nc1cc2c(c(N)n1)N=C1c3ccccc3CCC1O2.Cl.Cl (stereo not drawn) [Compound A85]	65
CCOC(=O)Nc1cc(NC(C)CCCN(CC)CC)c2ncc(-c3cc(OC)c(OC)c(OC)c3)nc2n1.Cl.Cl (stereo not drawn) [Compound A118]	40
CCOC(=O)Nc1cc(NCc2ccccc2)c([N+](=O)[O-])c(N)n1 [Compound A66]	83
CCOC(=O)Nc1cc2c(c(N)n1)N=C(CN(C)c1ccccc1)CN2 [Compound A80]	70
CCOC(=O)Nc1cc(NNC=O)c([N+](=O)[O-])c(N)n1 [Compound A205]	0
CCOC(=O)Nc1cc2nc(-c3ccccc3)c(-c3ccccc3)nc2c(N)n1 [Compound A49]	92
CCOC(=O)Nc1cc(Cl)c([N+](=O)[O-])c(N)n1 [Compound A106]	49
CCOC(=O)Nc1cc2c(nc(SCc3ccccc3)n2N)c(N)n1 [Compound A120]	34
CCOC(=O)Nc1cc2c(c(N)n1)N=C(c1ccc(O)cc1)[C@H](C)N2 [Compound A170]	7
CCOC(=O)Nc1cc(NCC(O)CN(C)c2ccccc2)c2nc(O)[nH]c2n1 (stereo not drawn) [Compound A63]	86
CCOC(=O)Nc1cc(N)c2ncn(/N=C/c3ccccc3)c2n1 [Compound A81]	69
CCOC(=O)Nc1cc2c(c(N)n1)N=C(CN(C)c1ccc(C(=O)OC)cc1)CN2 [Compound A288]	0
CCOC(=O)Nc1cc2[nH]c(-c3ccc(OC)cc3)nc2c(N)n1 [Compound A114]	41
CCOC(=O)Nc1cc2c(c(N)n1)N=C(c1ccc(OC)c(OC)c1)CO2 [Compound A193]	0

same assay, conditions: Mycobacterium tuberculosis; M. tuberculosis H37Rv; at 12.5% μg/ml (so in the source); read-out: Primary Screen PI (% inhibition of growth)

Structure (SMILES)	inhibition of growth at 12.5 µg/mL [%]
CCCCNC(=O)Oc1ccc(C2=Nc3c(cc(NC(=O)OCC)nc3N)N[C@H]2C)cc1 [SRI-20158, [5-Amino-3-(4-butylcarbamoyloxy-phenyl)-2-methyl-1,2-dihydro-pyrido[3,4-b]pyrazin-7-yl]-carbamic acid ethyl ester]	10
